Data set [1] concerns the target T1, SFRP-1 (Homo sapiens, UniProt Q8N474).
T1 sequence (Q8N474 32-314): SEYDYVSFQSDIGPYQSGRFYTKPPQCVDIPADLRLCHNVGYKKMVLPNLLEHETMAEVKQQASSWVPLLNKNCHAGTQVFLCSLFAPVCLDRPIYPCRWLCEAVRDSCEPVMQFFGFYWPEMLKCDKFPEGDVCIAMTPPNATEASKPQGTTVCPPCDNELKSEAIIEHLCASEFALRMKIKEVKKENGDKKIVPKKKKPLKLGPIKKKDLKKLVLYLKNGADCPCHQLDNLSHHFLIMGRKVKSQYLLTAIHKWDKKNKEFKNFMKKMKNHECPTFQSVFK
Put plainly: Fluorescence polarization binding assay (competitive displacement of a probe compound from SFRP-1).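 Also: test compound competes with a fluorescent probe held by SFRP-1, seen as a drop in probe anisotropy after incubation in darkness, with anisotropy as function of rising compound dose.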 Particulars: fluorescence anisotropy, 45 nM SFRP-1, 20 nM probe. On the technique in general: Fluorescence polarisation rises when a labelled molecule tumbles more slowly, as on binding a larger partner.

Data set [2] deals with T1, SFRP-1. Put plainly: Cell-based assay for in vitro measurement of SFRP-1/SARP2 antagonist activity (U2OS cells co-transfected with 16x TCF-tk-Luciferase reporter, Wnt and hSFRP-1).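 As to all read-outs here: U2OS cells co-transfected with a TCF-tk luciferase reporter, a Wnt vector, hSFRP-1 or empty vector and CMV-βgal, luciferase luminescence read in cell lysates alongside βgal activity.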 The note with it: for fold induction at 10 µM: U2OS, read-out: Fold Induction with SFRP-1, U2OS cells, single dose 10 μM, luciferase reporter, fold induction over SFRP-1 control. On the technique in general: Reporter assays use an easily measured gene product as a stand-in for the process of interest.

As usually defined, the IC50 is the concentration that gives 50% inhibition. Lower therefore signals inhibition by little substance. For orientation: melting point means the temperature of the solid-liquid transition. In turn, `CC(C)c1ccc(S(=O)(=O)c2ccccc2)cc1S(=O)(=O)NC1CCN(C(=O)c2ccc(C(F)(F)F)cc2)CC1` [Example 807, 2-Isopropyl-5-(phenylsulfonyl)-N-{1-[4-(trifluoromethyl)benzoyl]piperidin-4-yl}benzenesulfonamide] returned a melting point of 140 to 142 °C. For the same compound, the IC50 at SFRP-1 [1] came to 900 nM. The fold induction at 10 µM on SFRP-1 [2] stood at 3.

By EC50 is commonly meant the concentration at which the effect is half-maximal. A higher EC50 goes with lower potency in that assay. In turn, `CC(C)c1ccc(S(=O)(=O)c2ccccc2)cc1S(=O)(=O)NC1CCN(C(=O)c2cccc3ccccc23)CC1` [Example 808, 2-Isopropyl-N-[1-(1-naphthoyl)piperidin-4-yl]-5-(phenylsulfonyl)benzenesulfonamide] had a melting point of 163 to 165 °C. Besides, at SFRP-1 [1], the IC50 was 500 nM. On SFRP-1 [2], the response was half-maximal at 945 nM (EC50) and the fold induction at 10 µM is 3.7.

For the compound `CC(C)c1ccc(S(=O)(=O)c2ccccc2)cc1S(=O)(=O)NC1CCN(C(=O)c2ccc3ccccc3c2)CC1` [Example 809, 2-Isopropyl-N-[1-(2-naphthoyl)piperidin-4-yl]-5-(phenylsulfonyl)benzenesulfonamide], the melting point was in the range of 130 to 132 °C. In addition, on SFRP-1 [1], the 50% inhibitory concentration (IC50) amounted to 1100 nM. Also, the fold induction at 10 µM on SFRP-1 [2] came to 2.8.

In turn, `CC(C)c1ccc(S(=O)(=O)c2ccccc2)cc1S(=O)(=O)NC1CCN(C(=O)c2cccc(C#N)c2)CC1` [Example 810, N-[1-(3-Cyanobenzoyl)piperidin-4-yl]-2-isopropyl-5-(phenylsulfonyl)benzenesulfonamide] gave a melting point of 120 to 122 °C. On SFRP-1 [1], the IC50 was 290 nM. Moreover, on SFRP-1 [2], the EC50 is 818 nM and the fold induction at 10 µM worked out at 3.1.

Consider `CC(C)c1ccc(S(=O)(=O)c2ccccc2)cc1S(=O)(=O)NC1CCN(C(=O)c2ccc(C#N)cc2)CC1` [Example 811, N-[1-(4-Cyanobenzoyl)piperidin-4-yl]-2-isopropyl-5-(phenylsulfonyl)benzenesulfonamide], for which the melting point was in the range of 136 to 138 °C. For the same compound, the IC50 at SFRP-1 [1] amounted to 300 nM. The fold induction at 10 µM on SFRP-1 [2] was found to be 2.6.

Compound `CC(C)c1ccc(S(=O)(=O)c2ccccc2)cc1S(=O)(=O)NC1CCN(C(=O)c2ccc(C(C)(C)C)cc2)CC1` [Example 812, N-[1-(4-tert-Butylbenzoyl)piperidin-4-yl]-2-isopropyl-5-(phenylsulfonyl)benzenesulfonamide] came in with a melting point of 150 to 152 °C. The IC50 at SFRP-1 [1] was found to be 600 nM. For the same compound, the fold induction at 10 µM on SFRP-1 [2] turned out to be 3.9.

Take `CCOc1ccc2ccccc2c1C(=O)N1CCC(NS(=O)(=O)c2cc(S(=O)(=O)c3ccccc3)ccc2C(C)C)CC1` [Example 813, N-[1-(2-Ethoxy-1-naphthoyl)piperidin-4-yl]-2-isopropyl-5-(phenylsulfonyl)benzenesulfonamide]: the melting point fell in the range of 164 to 166 °C. The compound also yielded a half-maximal inhibitory concentration (IC50) at SFRP-1 [1] of 400 nM. Also, at SFRP-1 [2], the EC50 turned out to be 674 nM and the fold induction at 10 µM is 3.9.

Compound `CCCc1ccc(S(=O)(=O)c2ccccc2)cc1S(=O)(=O)NCCc1ccncc1` [Example 859, 5-(Phenylsulfonyl)-2-propyl-N-(2-pyridin-4-ylethyl)benzenesulfonamide] had a melting point of 155 to 157 °C. In addition, the half-inhibitory concentration (IC50) at SFRP-1 [1] was found to be 600 nM. Moreover, at SFRP-1 [2], the response was half-maximal at 1540 nM (EC50) and the fold induction at 10 µM worked out at 3.6.

The compound `CCCc1ccc(S(=O)(=O)c2ccc(F)cc2)cc1S(=O)(=O)NCCc1cccnc1` [Example 874, 5-[(4-Fluorophenyl)sulfonyl]-2-propyl-N-(2-pyridin-3-ylethyl)benzenesulfonamide] registered a melting point of 111 to 113 °C. The compound further gave a concentration for half-maximal inhibition (IC50) on SFRP-1 [1] of 1950 nM. Moreover, at SFRP-1 [2], the EC50 worked out at 2000 nM and the fold induction at 10 µM is 3.1.

Compound `CCCc1ccc(S(=O)(=O)c2ccc(F)cc2)cc1S(=O)(=O)NCCc1ccncc1` [Example 875, 5-[(4-Fluorophenyl)sulfonyl]-2-propyl-N-(2-pyridin-4-ylethyl)benzenesulfonamide] returned a melting point of 160 to 162 °C. The compound also gave an IC50 on SFRP-1 [1] of 600 nM. Besides, at SFRP-1 [2], the EC50 was determined as 6650 nM and the fold induction at 10 µM was 1.6.

Values taken from patent US20060276464A1, “Diarylsulfone sulfonamides and use thereof” (Wyeth, priority 2005, published 2006).
